In test [1] the test system is perfused rat pituitary cell system (LH response to LH-RH). The test is described as follows: LH-RH inhibiting activity in superfused rat pituitary cell system. The format is cell-based. The procedure: Immediately after that, a mixture containing the same concentration of peptide and 3 nM LHRH is administered for 3 min. This was followed by four consecutive infusions of 3 nM LHRH for 3 min (1 ml perfusate) at 30 min intervals (30, 60, 90, 120 min). LH content of the 1 ml fractions collected is determined by radioimmunoassay (RIA).

Test [2] deals with ovulation in 4-day-cycling rats. The test is described as follows: In vivo antiovulatory activity in 4-day-cycling rats. The arrangement: species or system rat. As to the method: (b) In vivo antiovulatory activity of peptides is determined in 4-day-cycling rats as described [A. Corbin and C. W. Beattie, Endocr. Res. Commun., 2, 1-23 (1975)].
Test [3] concerns membrane receptors of human breast cancer cells. The test is described as follows: Receptor binding, human breast cancer cell membranes (125I-[D-Trp6]LHRH as labelled ligand). Particulars: 125I-[D-Trp]6 LHRH labelled ligand; for Affinity Constant Ka 1: NB = no binding. The procedure:
Affinity of peptides to rat pituitary and human breast cancer cell membranes is determined by using labelled LHRH and [D-Trp^6 ]LHRH. The assay is carried out similarly to that described by T. Kadar et al., Proc. Natl. Acad. Sci. USA, 85, 890-894 (1988) and M. Fekete et al., Endocrinology, 124, 946-955 (1989).

[4] abbreviates: antagonist to LH-RH ratio 3:1, 0 min.
The mark [5] stands for this setting: antagonist to LH-RH ratio 3:1, 30 min.
Setting [6] is: antagonist to LH-RH ratio 3:1, 60 min.
Setting [7] is: antagonist to LH-RH ratio 3:1, 90 min.
[8] abbreviates: antagonist to LH-RH ratio 1:1, 0 min.
Setting [9] is: antagonist to LH-RH ratio 1:1, 30 min.
The mark [10] stands for this setting: antagonist to LH-RH ratio 1:1, 60 min.
The mark [11] stands for this setting: antagonist to LH-RH ratio 1:1, 90 min.

Turning to “Ac-D-Nal(2)-D-Phe(4Cl)-D-Pal(3)-Ser-Tyr-D-Lys[DL-A2 bu(PRL)2 ]-Leu-Arg-Pro-D-Ala-NH2 [Peptide 18]”, the “% inhibition of LH response” value was 90% in test [1] (setting [4]), 71% in test [1] (setting [5]), 58% in test [1] (setting [6]) and 54% in test [1] (setting [7]). Besides, the “% Blockade of Ovulation” value in test [2] (dose 0.75 μg) turned out to be 75%. In test [3], the “Affinity Constant Ka 2” value was 6.17 µM⁻¹. Moreover, the “Affinity Constant Ka 1” value in test [3] worked out at 21.18 nM⁻¹.
“Ac-D-Nal(2)-D-Phe(4Cl)-D-Pal(3)-Ser-Tyr-D-Lys[A2 pr(CHC)2 ]-Leu-Arg-Pro-D-Ala-NH2 [Peptide 12]”: in test [3], the “Affinity Constant Ka 2” value stood at 3.57 µM⁻¹ and the “Affinity Constant Ka 1” value stood at 1.68 nM⁻¹.
Take “Ac-D-Nal(2)-D-Phe(4Cl)-D-Pal(3)-Ser-Tyr-D-Lys[A2 pr(For)2 ]-Leu-Arg-Pro-D-Ala-NH2 [Peptide 10]”: the “% Blockade of Ovulation” value in test [2] (dose 0.75 μg) amounted to 67%. Further, the “% Blockade of Ovulation” value in test [2] (dose 1.5 μg) worked out at 100%. In test [3], the “Affinity Constant Ka 2” value amounted to 2.11 µM⁻¹ and the “Affinity Constant Ka 1” value worked out at 48.29 nM⁻¹.
For “Ac-D-Nal(2)-D-Phe(4Cl)-D-Pal(3)-Ser-Arg-D-Lys[A2 pr(EtCar)2 ]-Leu-Arg-Pro-D-Ala-NH2 [Peptide 4]”, the “% inhibition of LH response” value stood at 91% in test [1] (setting [4]), 50% in test [1] (setting [5]), 42% in test [1] (setting [6]) and 41% in test [1] (setting [7]). The “Affinity Constant Ka 2” value in test [3] stood at 0.05 µM⁻¹. In test [3], the “Affinity Constant Ka 1” value turned out to be 9.71 nM⁻¹.
Regarding “Ac-D-Nal(2)-D-Phe(4Cl)-D-Pal(3)-Ser-Tyr-D-Lys[DL-A2 bu(For)2 ]-Leu-Arg-Pro-D-Ala-NH2 [Peptide 15]”, the “% inhibition of LH response” value was 44% in test [1] (setting [8]); 41% in test [1] (setting [9]); 22% in test [1] (setting [10]); 23% in test [1] (setting [11]); 99% in test [1] (setting [4]); 60% in test [1] (setting [5]). For the same substance, the “% inhibition of LH response” value in test [1] (setting [6]) is 34%; in test [1] (setting [7]) it was 21%. Besides, the “% Blockade of Ovulation” value in test [2] (dose 1.5 μg) is on record as 100%; in test [2] (dose is 0.375 μg), 25%.
For “Ac-D-Nal(2)-D-Phe(4Cl)-D-Pal(3)-Ser-Tyr-D-Lys[A2 pr(EtCar)2 ]-Leu-Arg-Pro-D-Ala-NH2 [Peptide 9]”, the “% inhibition of LH response” value in test [1] (setting [4]) came to 90%; in test [1] (setting [5]) it was 72%. Besides, the “% Blockade of Ovulation” value in test [2] (dose 0.75 μg) stood at 20%; in test [2] (dose 1.5 μg), 50%. In addition, the “Affinity Constant Ka 2” value in test [3] worked out at 8.57 µM⁻¹. Further, the “Affinity Constant Ka 1” value in test [3] was found to be 30.92 nM⁻¹.
Consider “Ac-D-Nal(2)-D-Phe(4Cl)-D-Trp-Ser-Arg-D-Lys[A2 pr(For)2 ]-Leu-Arg-Pro-D-Ala-NH2 [Peptide 24]”, for which the “% inhibition of LH response” value in test [1] (setting [8]) is 36%; in test [1] (setting [9]), 11%; in test [1] (setting [10]), 0%; in test [1] (setting [11]), 9%; in test [1] (setting [4]), 58%; in test [1] (setting [5]), 5%. The “% inhibition of LH response” value is 18% in test [1] (setting [6]) and 27% in test [1] (setting [7]). In addition, in test [2] (dose 1.5 μg), the “% Blockade of Ovulation” value is on record as 50%.
As to “Ac-D-Nal(2)-D-Phe(4Cl)-D-Pal(3)-Ser-Tyr-D-Lys[DL-A2 bu(Car)2 ]-Leu-Arg-Pro-D-Ala-NH2 [Peptide 16]”, the “% inhibition of LH response” value came out at 52% in test [1] (setting [8]), 33% in test [1] (setting [9]), 24% in test [1] (setting [10]) and 28% in test [1] (setting [11]). In test [2] (dose 1.5 μg), the “% Blockade of Ovulation” value is 33%.
For “Ac-D-Nal(2)-D-Phe(4Cl)-D-Pal(3)-Ser-Arg-D-Lys[A2 pr(For)2 ]-Leu-Arg-Pro-D-Ala-NH2 [Peptide 3]”, the “% inhibition of LH response” value in test [1] (setting [4]) is 93%; in test [1] (setting [5]), 43%; in test [1] (setting [6]) it was 26%; in test [1] (setting [7]), 24%.
“Ac-D-Nal(2)-D-Phe(4Cl)-D-Pal(3)-Ser-Tyr-D-Lys[DL-A2 bu(Ac)2 ]-Leu-Arg-Pro-D-Ala-NH2 [Peptide 14]”: the “% inhibition of LH response” value in test [1] (setting [4]) is given as 80%; in test [1] (setting [5]), 63%; in test [1] (setting [6]), 51%; in test [1] (setting [7]), 53%. In addition, in test [2] (dose 1.5 μg), the “% Blockade of Ovulation” value is on record as 20%. Also, the “Affinity Constant Ka 2” value in test [3] came out at 0.28 µM⁻¹. For the same substance, the “Affinity Constant Ka 1” value in test [3] turned out to be 4.83 nM⁻¹.
Turning to “Ac-D-Nal(2)-D-Phe(4Cl)-D-Pal(3)-Ser-Tyr-D-Lys[A2 pr]-Leu-Arg-Pro-D-Ala-NH2 [Peptide 25]”, the “% inhibition of LH response” value in test [1] (setting [8]) worked out at 57%; in test [1] (setting [9]) it was 49%; in test [1] (setting [10]), 43%; in test [1] (setting [4]) it was 85%; in test [1] (setting [5]) it was 69%; in test [1] (setting [6]) it was 62%. Moreover, in test [1] (setting [7]), the “% inhibition of LH response” value was found to be 57%. The “Affinity Constant Ka 2” value in test [3] was found to be 1.29 µM⁻¹. For the same substance, in test [3], the “Affinity Constant Ka 1” value was 3.49 nM⁻¹.
With “Ac-D-Nal(2)-D-Phe(4Cl)-D-Pal(3)-Ser-Tyr-D-Lys[DL-A2 bu(LAU)2 ]-Leu-Arg-Pro-D-Ala-NH2 [Peptide 19]”, the “% inhibition of LH response” value in test [1] (setting [8]) amounted to 20%; in test [1] (setting [9]), 20%; in test [1] (setting [10]), 0%; in test [1] (setting [11]), 0%. Moreover, the “Affinity Constant Ka 2” value in test [3] turned out to be 0 µM⁻¹. Further, the “Affinity Constant Ka 1” value in test [3] stood at 0 nM⁻¹.
In the case of “Ac-D-Nal(2)-D-Phe(4Cl)-D-Trp-Ser-Arg-D-Lys[A2 pr(Car)2 ]-Leu-Arg-Pro-D-Ala-NH2 [Peptide 22]”, the “% inhibition of LH response” value in test [1] (setting [4]) was 64%; in test [1] (setting [5]), 22%; in test [1] (setting [6]), 24%. Further, the “Affinity Constant Ka 2” value in test [3] amounted to 2.67 µM⁻¹. Further, the “Affinity Constant Ka 1” value in test [3] came to 4.09 nM⁻¹.
In the case of “Ac-D-Nal(2)-D-Phe(4Cl)-D-Pal(3)-Ser-Arg-D-Lys[A2 pr(Ac)2 ]-Leu-Arg-Pro-D-Ala-NH2 [Peptide 2]”, the “% inhibition of LH response” value in test [1] (setting [8]) is reported as 26%; in test [1] (setting [9]), 27%; in test [1] (setting [10]), 29%; in test [1] (setting [11]) it was 25%; in test [1] (setting [4]), 88%; in test [1] (setting [5]), 41%. The “% inhibition of LH response” value in test [1] (setting [6]) is 13%. Also, in test [3], the “Affinity Constant Ka 2” value came out at 0.32 µM⁻¹. In test [3], the “Affinity Constant Ka 1” value was determined as 16.35 nM⁻¹.
Take “Ac-D-Nal(2)-D-Phe(4Cl)-D-Trp-Ser-Arg-D-Lys[A2 pr(Ac)2 ]-Leu-Arg-Pro-D-Ala-NH2 [Peptide 23]”: the “% inhibition of LH response” value was found to be 52% in test [1] (setting [4]), 22% in test [1] (setting [5]), 21% in test [1] (setting [6]) and 22% in test [1] (setting [7]). Moreover, the “Affinity Constant Ka 2” value in test [3] came out at 0.14 µM⁻¹. Further, the “Affinity Constant Ka 1” value in test [3] was determined as 6.87 nM⁻¹.
In the case of “Ac-D-Nal(2)-D-Phe(4Cl)-D-Pal(3)-Ser-Arg-D-Lys[A2 pr(Car)2 ]-Leu-Arg-Pro-D-Ala-NH2 [Peptide 1]”, the “% inhibition of LH response” value in test [1] (setting [8]) turned out to be 80%; in test [1] (setting [9]), 46%; in test [1] (setting [10]), 31%; in test [1] (setting [4]), 95%; in test [1] (setting [5]), 59%; in test [1] (setting [6]), 55%. For the same substance, the “% inhibition of LH response” value in test [1] (setting [7]) is listed as 52%. In addition, in test [3], the “Affinity Constant Ka 2” value worked out at 3.15 µM⁻¹. Besides, in test [3], the “Affinity Constant Ka 1” value came out at 7.07 nM⁻¹.
On to “Ac-D-Nal(2)-D-Phe(4Cl)-D-Pal(3)-Ser-Tyr-D-Lys[DL-A2 bu]-Leu-Arg-Pro-D-Ala-NH2 [Peptide 26]”, for which the “% inhibition of LH response” value was 70% in test [1] (setting [8]); 52% in test [1] (setting [9]); 37% in test [1] (setting [10]); 90% in test [1] (setting [4]); 75% in test [1] (setting [5]); 62% in test [1] (setting [6]). In test [1] (setting [7]), the “% inhibition of LH response” value is 57%.
